Columns and labels:
PSA model mice = assay: Passive systemic anaphylaxis (PSA) in IgE-sensitized mice, body temperature change; type: in vivo; conditions: for body temperature decrease-suppressing effect: 10 mg/kg intraperitoneally before tail vein DNP-HSA, vs vehicle group
Description: The mice were sensitized by tail vein administration of 10 μg/200 μL IgE (physiological saline) under anesthesia.
Male C57BL/6J mice (7 to 8 or 10 to 11 weeks old, produced by Japan SLC, Inc) were used as the mice.
The DNP-HSA administration was arranged to be performed 24 hours after the preparation of the IgE-sensitized mice.
Moreover, with the rest of the IgE-sensitized mice, a group administered with physiological saline as a control for Compound A (vehicle group) and a group administered with the solvent B as a control for Compound B (vehicle group) were prepared.
PSA model mice were prepared, and anaphylaxis was induced by tail vein administration of 100 ng/200 μL (physiological saline) DNP-HSA to unanesthetized mice 24 hours after the preparation of the IgE-sensitized mice.
Inducing systemic anaphylaxis causes a rapid decrease in the body temperatures of the PSA model mice.
The measurement of the body temperature change was performed by measuring, with BAT-7001H Thermometer (Physitemp Instruments, LLC.), the rectal temperatures every 5 minutes from 0 minutes to 60 minutes after the administration, the 0 minutes being defined as the time of the DNP-HSA administration.

[1] = tested on: IgE-sensitized bone marrow-derived mast cells (BMMCs); assay: Degranulation reaction (β-hexosaminidase release rate) of IgE-sensitized BMMCs costimulated with DNP-HSA and ATP; type: cell-based, mice; conditions: for β-hexosaminidase release rate compared to the control BMMCs / β-hexosaminidase release rate compared to the control BMMCs (dose dependence): group (4): costimulation with ATP and DNP-HSA (10 ng/ml); for β-hexosaminidase release rate compared to the control BMMCs (dose dependence): preincubation with compound 1, 3, 10 μM
Description: (§1) The degranulation reaction was performed by obtaining a degranulation rate using a β-hexosaminidase release rate as an index. The β-hexosaminidase release rate was measured as in the section (Degranulation Experiment) below.
Bone marrow was collected from femora of male C57BL/6J mice (7 to 8 weeks old, produced by Japan SLC, Inc). Red blood cells were hemolyzed, and culture was performed in a medium containing 10% fetal bovine serum (FBS), penicillin (100 unit/ml), streptomycin (100 μg/ml), and recombinant mouse IL-3 (10 ng/ml, manufactured by PeproTech, Inc.) for 14 days. Stem cell factor (SCF) (10 ng/ml) was added to the medium from Day 15, and the culture was performed for 35 to 42 days to be used for the experiment. Whether the cells were differentiated into mast cells was confirmed by the degrees the of c-KIT and FcεRI expressions. The confirmation was performed by using FACSCant II (manufactured by BD Biosciences).
Anti-DNP-IgE antibody (clone: SPE-7, manufactured by Sigma-Aldrich, Inc.) was added to the BMMC culture solution so that the concentration reached 50 ng/ml, and the BMMCs were sensitized overnight. To be used in the experiment, the BMMCs were washed with PBS(−) and suspended in Krebs Ringer-HEPES Buffer (NaCl 130 mM, KCl 4.7 mM, NaHCO34.0 mM, KH2P4 1.2 mM, Glucose 11.5 mM, HEPES 10 mM, and CaCl2·H2O 1.8 mM) so that the concentration reached 1×10^6 cell/ml.
Then, the BMMCs were each set up into the following 4 groups. • (1) A group in which nothing was added to the BMMCs, • (2) a group in which only ATP was added to the BMMCs, • (3) a group in which only DNP-HSA (10 ng/ml) was added to the BMMCs as an antigen, and • (4) a group in which a mixed solution of ATP and DNP-HSA (10 ng/ml) was added to the BMMCs at once.
Each of the 4 groups was stimulated at 37° C. for 5 minutes and rapidly cooled on ice, and then centrifugation was performed to stop the reaction. After collecting the supernatant, precipitated cells were lysed with 0.1% triton X-100. The supernatant and the cell lysis solution (50 μL) were mixed with 10 mM 4-Nitrophenyl N-acetyl-p-D-glucosaminide (manufactured by Sigma-Aldrich, Inc.) which was a β-hexosaminidase substrate/50 mM citrate buffer (pH 4.5, 50 μL), and the mixture was incubated at 37° C. for 30 minutes. 50 mM carbonate buffer (pH 10.0, 100 μL) was added to stop the reaction, and absorbance was measured at 405/655 using an absorbance microplate reader Sunrise (manufactured by Tecan Trading AG). The β-hexosaminidase release rate was obtained from the following formula. β-hexosaminidase release rate=Absorbance of supernatant/(Absorbance of supernatant+absorbance of cell lysis station)×100
Note that, in the present Example, the numbers of specimens were all n=3, and the significant differences in the present Example are indicated with “*” or “**” in FIGS. 1 and 2, “*” indicating P<0.05, and “**” P<0.01. In addition, “*” or “**” in FIGS. 1 and 2 each indicate that there was a significant difference as a result of comparison with the control in the same group.

PCA model mice = assay: Passive cutaneous anaphylaxis (PCA) in IgE-sensitized mice, Evans blue in the auricle; type: in vivo
Description: The mice were sensitized by subcutaneously administering 100 ng/20 μL IgE into the right ears under anesthesia. Only physiological saline was administered into the left ears.
Male C57BL/6J mice (10 to 11 weeks old, produced by Japan SLC, Inc) were used as the mice.
Note that the DNP-HSA administration was performed by tail vein administration and was arranged to be performed 24 hours after the preparation of the IgE-sensitized mice.
Note that the concentration of 65% Kolliphor EL was prepared using ethanol and a small amount of sterile water for injection (or water). In addition, the DNP-HSA administration was arranged to be performed 24 hours after the preparation of the IgE-sensitized mice.
Moreover, with the rest of the IgE-sensitized mice, a group administered with physiological saline as a control for Compound A (vehicle group) and a group administered with the solvent B as a control for Compound B (vehicle group) were prepared. […]
The PCA model mice were euthanized 30 minutes after the DNP-HSA administration, the auricles were collected, and the weights of the auricles were measured. […] Absorbance (620 nm) of the extracted Evans blue and the calibration curve was measured using the absorbance microplate reader Sunrise (Tecan Trading AG), and the concentrations were calculated.

BMMCs = assay: IL-6, IL-13 and TNF-α release by stimulated BMMCs (ELISA); type: cell-based, mice; conditions: 10 μM, pretreatment 5 minutes; stimulation 3 hours
Description: BMMCs were washed with a fresh culture solution and subjected to reactions in the presence and absence of a stimulating agent (100 μM ATP, 1 μM PGE2, 100 μM ATP+1 μM PGE2) for 3 hours.
The grouping is as shown below and matches the numbers in parentheses indicated in FIGS. 7 to 9. • (1) A group in which nothing was added to the BMMCs, • (2) a group in which only ATP was added to the BMMCs, • (3) a group in which only PGE2 was added to the BMMCs, and • (4) a group in which a mixed solution of ATP and PGE2 was added to the BMMCs at once.
Cytokines released into the reaction solution (interleukin (IL)-6, IL-13, and TNF-α) were measured using ELISA kits (Invitrogen Corporation).

IgE-sensitized BMMCs = assay: Degranulation reaction (β-hexosaminidase release rate) of IgE-sensitized BMMCs costimulated with PGE2 and ATP; type: cell-based, mice
Description: as §1
Setting up of BMMCs was performed according to the method described in Example 2.
Anti-DNP-IgE antibody (clone: SPE-7, manufactured by Sigma-Aldrich, Inc.) was added to the BMMC culture solution so that the concentration reached 50 ng/ml, and the BMMCs were sensitized overnight. To be used in the experiment, the BMMCs were washed with PBS(−) and suspended in Krebs Ringer-HEPES Buffer (NaCl 130 mM, KCl 4.7 mM, NaHCO3 4.0 mM, KH2P4 1.2 mM, Glucose 11.5 mM, HEPES 10 mM, and CaCl2·H2O 1.8 mM) so that the concentration reached 1×10^6 cell/ml.
Then, the BMMCs were each set up into the following 6 groups. Note that the numbers in the parentheses below match the numbers in parentheses in FIG. 6. • (1) A group in which nothing was added to the BMMCs, • (2) a group in which only ATP was added to the BMMCs, • (3) a group in which only PGE2 (1 μM) was added to the BMMCs, • (4) a group in which a mixed solution of ATP and PGE2 (1 μM) was added to the BMMCs at once, • (5) a group in which only DNP-HSA (10 ng/ml) was added to the BMMCs as an antigen, and • (6) a group in which a mixed solution of ATP and DNP-HSA (10 ng/ml) was added to the BMMCs at once.
Each of the 6 groups was stimulated at 37° C. for 5 minutes and rapidly cooled on ice, and then centrifugation was performed to stop the reaction. After collecting the supernatant, precipitated cells were lysed with 0.1% triton X-100. […] 50 mM carbonate buffer (pH 10.0, 100 μL) was added to stop the reaction, and absorbance was measured at 405/655 using an absorbance microplate reader Sunrise (manufactured by Tecan Trading AG). The β-hexosaminidase release rate was obtained from the following formula. β-hexosaminidase release rate=Absorbance of supernatant/(Absorbance of supernatant+absorbance of cell lysis station)×100 (Test Result) […]

[2] = 10 mg/kg intraperitoneally 30 minutes before DNP-HSA

| SMILES | body temperature decrease-suppressing effect (PSA model mice) | β-hexosaminidase release rate compared to the control BMMCs ([1]; concentrations of 3 μM and 10 μM) | β-hexosaminidase release rate compared to the control BMMCs (dose dependence) [1] | increase in Evans Blue per auricle weight (PCA model mice; 10 mg/kg intraperitoneally 1 hour before tail vein DNP-HSA, vs vehicle group) | increase in Evans Blue per auricle weight (PCA model mice; 10 mg/kg orally administered, not shown in the drawing) | ATP-induced increase in IL-6 release (BMMCs) | ATP-induced increase in IL-13 release (BMMCs) | ATP-induced increase in TNF-α release (BMMCs) | persistence of the body temperature decrease-suppressing effect (PSA model mice; [2]) [min] | time over which there was a significant difference in the body temperature decrease-suppressing effect (PSA model mice; [2]) | β-hexosaminidase release rate compared to the control BMMCs (IgE-sensitized BMMCs; group (4): costimulation with ATP (0.1 mM) and PGE2 (1 μM), all concentrations of 1 μM, 3 μM, and 10 μM) | β-hexosaminidase release rate compared to the control BMMCs (dose dependence) (IgE-sensitized BMMCs; group (4): costimulation with ATP (0.1 mM) and PGE2 (1 μM), preincubation with compound 1, 3, 10 μM) | β-hexosaminidase release rate (IgE-sensitized BMMCs; groups (1) to (3) not subjected to costimulation with ATP (0.1 mM) and PGE2, compound 1, 3 or 10 μM) | β-hexosaminidase release rate compared to the control BMMCs ([1]; all concentrations of 1 μM, 3 μM, and 10 μM) | β-hexosaminidase release rate ([1]; groups (1) to (3) not subjected to costimulation with ATP and DNP-HSA (10 ng/ml), compound 1, 3 or 10 μM) |
| --- | --- | --- | --- | --- | --- | --- | --- | --- | --- | --- | --- | --- | --- | --- | --- |
| O=C1CC(=O)N(c2ccc(NC(=O)c3ccccc3I)cc2)c2ccc3ccccc3c2N1 [Compound B48, 5-[4-(2-iodobenzoylamino)phenyl]-1H-naphtho[1,2-b][1,4]diazepine-2,4(3H,5H)-dione] | significant body temperature decrease-suppressing effect | significantly decreased | decreased in a dose-dependent manner | significantly suppressed | significantly suppressed | – | – | – | – | – | – | – | – | – | – |
| O=C1CC(=O)N(c2cccc(-c3noc(=S)[nH]3)c2)c2ccc3ccccc3c2N1.[Na] [Compound A17, 5-[3-(5-thioxo-4H-[1,2,4]oxadiazol-3-yl)phenyl]-1H-naphtho[1,2-b][1,4]diazepine-2,4(3H,5H)-dione sodium salt] | significant body temperature decrease-suppressing effect | – | decreased in a dose-dependent manner | – | – | suppressed | suppressed | suppressed | > 60 | at least 35 minutes | significantly decreased | decreased in a dose-dependent manner | lower than 5% | significantly decreased | lower than 10% |

Reference: patent publication US12629379B2, “Pharmaceutical composition for preventing, suppressing, or treating symptom associated with allergic reaction” (Nippon Chemiphar Co., Ltd., priority 2020, dated 2026)
